Tests used:
ryegrass, Italian = assay: Test C pre-/postemergence herbicide test; assay type: in vivo, Lolium multiflorum
How it was run: (§1)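 Visual rating, 0 (no effect) to 100 (complete control), versus untreated controls after 13 to 15 days in the greenhouse. Pre: seeds in loam/sand, sprayed at planting. Post: 1- to 4-leaf plants (2 to 18 cm) in peat-based mix. Compounds in non-phytotoxic solvent plus surfactant.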

nutsedge, yellow = assay: Test C pre-/postemergence herbicide test; assay type: in vivo, Cyperus esculentus
How it was run: as §1

ragweed = assay: Test C pre-/postemergence herbicide test; assay type: in vivo, Ambrosia elatior
How it was run: as §1

giant foxtail = assay: Test A pre-/postemergence herbicide test; assay type: in vivo, Setaria faberii
How it was run: (§2)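 Seeds sown in loam soil/sand blend received a preemergence directed soil spray of test chemical in non-phytotoxic solvent with surfactant; postemergence plants (2–10 cm, one- to two-leaf stage) were sprayed with the same formulation. After about 10 days in greenhouse, injury was rated visually versus untreated controls, 0 (no effect) to 100 (complete control).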

pigweed = assay: Test A pre-/postemergence herbicide test; assay type: in vivo, Amaranthus retroflexus
How it was run: as §2

blackgrass = assay: Test C pre-/postemergence herbicide test; assay type: in vivo, Alopecurus myosuroides
How it was run: as §1

wheat = assay: Test A pre-/postemergence herbicide test; assay type: in vivo, Triticum aestivum
How it was run: as §2

johnsongrass = assay: Test C pre-/postemergence herbicide test; assay type: in vivo, Sorghum halepense
How it was run: as §1

foxtail, giant = assay: Test C pre-/postemergence herbicide test; assay type: in vivo, Setaria faberii
How it was run: as §1

crabgrass, large = assay: Test C pre-/postemergence herbicide test; assay type: in vivo, Digitaria sanguinalis
How it was run: as §1

[1] = Preemergence, 62 g ai/ha, scale 0 to 100
[2] = Preemergence, 125 g ai/ha, scale 0 to 100 (0 no effect, 100 complete control)
[3] = Postemergence, 125 g ai/ha, 0 to 100 scale, 0 no effect, 100 complete control
[4] = Postemergence, 500 g ai/ha, 0 to 100 scale (0 no effect, 100 complete control)
[5] = Preemergence, 125 g ai/ha, visual rating on 0 to 100 scale (0 no effect, 100 complete control)
[6] = preemergence, 500 g ai/ha, 0 to 100 scale
[7] = Preemergence, 31 g ai/ha, scale 0 to 100 (0 no effect, 100 complete control)
[8] = Preemergence, 250 g ai/ha, scale 0 to 100 (0 no effect, 100 complete control)
[9] = Postemergence, 31 g ai/ha, scale 0 to 100 (0 no effect, 100 complete control)
[10] = Postemergence, 62 g ai/ha, scale 0 (no effect) to 100 (complete control)
[11] = Postemergence, 125 g ai/ha, scale 0 to 100 (0 no effect, 100 complete control)
[12] = Postemergence, 250 g ai/ha, scale 0 to 100 (0 no effect, 100 complete control)
[13] = Preemergence, 31 g ai/ha, scale 0 to 100, 0 is no effect and 100 is complete control
[14] = Preemergence, 62 g ai/ha, scale 0 to 100 (0 no effect, 100 complete control)
[15] = 125 g ai/ha, visual rating, 0 to 100 scale, 0 no effect, 100 complete control, approximately 10 days, preemergence
[16] = Postemergence, 125 g ai/ha, 0 to 100 scale, 0 is no effect, 100 is complete control
[17] = preemergence, 500 g ai/ha, 0 to 100 scale, 0 is no effect and 100 is complete control

O=C1NCC(c2ccc(Cl)c(Cl)c2)C1C(=O)Nc1ccccc1F (racemic) [Compound 14]
80: Plant response rating, Foxtail, Giant (giant foxtail; [4]) | Foxtail, Giant plant response rating (giant foxtail; [5])
98: Plant response rating, Crabgrass, Large (crabgrass, large; [1]) | Plant response rating, Crabgrass, Large (crabgrass, large; [2])
90: Plant response rating, Foxtail, Giant (giant foxtail; [6]) | Plant response rating, Foxtail, Giant (foxtail, giant; [2]) | Crabgrass, Large plant response rating (crabgrass, large; [7])
60: Plant response rating, Foxtail, Giant (giant foxtail; [3])
95: Plant response rating, Foxtail, Giant (foxtail, giant; [8])
100: Plant response rating, Crabgrass, Large (crabgrass, large; [8])
85: Plant response rating, Foxtail, Giant (foxtail, giant; [1]) | Foxtail, Giant plant response rating (foxtail, giant; [7])
0: Plant response rating, Ryegrass, Italian (ryegrass, Italian; [1]) | Plant response rating, Ryegrass, Italian (ryegrass, Italian; [2]) | Plant response rating, Nutsedge, Yellow (nutsedge, yellow; [1]) | Plant response rating, Nutsedge, Yellow (nutsedge, yellow; [2]) | Plant response rating, Ragweed (ragweed; [1]) | Plant response rating, Ragweed (ragweed; [2]) | Plant response rating, Pigweed (pigweed; [3]) | Plant response rating, Pigweed (pigweed; [4]) | Pigweed plant response rating (pigweed; [5]) | Plant response rating, Blackgrass (blackgrass; [1]) | Plant response rating, Blackgrass (blackgrass; [2]) | Blackgrass plant response rating (blackgrass; [7]) | Plant response rating, Blackgrass (blackgrass; [8]) | Plant response rating, Wheat (wheat; [3]) | Plant response rating, Wheat (wheat; [4]) | Wheat plant response rating (wheat; [5]) | Plant response rating, Wheat (wheat; [6]) | Plant response rating, Johnsongrass (johnsongrass; [1]) | Plant response rating, Johnsongrass (johnsongrass; [2])
20: Plant response rating, Pigweed (pigweed; [6])

O=C1NC[C@H](c2cccc(C(F)(F)F)c2)[C@H]1C(=O)Nc1cccc(F)c1F [Compound 206]
50: Plant response rating, Pigweed (pigweed; [16]) | Plant response rating, Foxtail, Giant (foxtail, giant; [10]) | Plant response rating, Foxtail, Giant (foxtail, giant; [11]) | Plant response rating, Crabgrass, Large (crabgrass, large; [10])
98: Plant response rating (scale of 0 to 100), Ragweed (ragweed; Preemergence, 250 g ai/ha)
30: Ryegrass, Italian plant response rating (ryegrass, Italian; [13]) | Plant response rating, Pigweed (pigweed; [15])
95: Plant response rating, Foxtail, Giant (foxtail, giant; [2]) | Plant response rating (scale of 0 to 100), Foxtail, Giant (foxtail, giant; Preemergence, 250 g ai/ha) | Plant response rating, Crabgrass, Large (crabgrass, large; [2]) | Plant response rating (scale of 0 to 100), Crabgrass, Large (crabgrass, large; Preemergence, 250 g ai/ha)
35: Plant response rating, Ryegrass, Italian (ryegrass, Italian; [12]) | Plant response rating, Johnsongrass (johnsongrass; [12])
10: Plant response rating, Ryegrass, Italian (ryegrass, Italian; [11]) | Ragweed plant response rating (ragweed; [14])
65: Johnsongrass plant response rating (johnsongrass; [14])
45: Plant response rating, Ryegrass, Italian (ryegrass, Italian; [2]) | Plant response rating, Crabgrass, Large (crabgrass, large; [9])
25: Plant response rating, Ragweed (ragweed; [11]) | Johnsongrass plant response rating (johnsongrass; [13])
60: Plant response rating, Blackgrass (blackgrass; [12])
85: Blackgrass plant response rating (blackgrass; [13]) | Plant response rating, Johnsongrass (johnsongrass; [2]) | Plant response rating (scale of 0 to 100), Johnsongrass (johnsongrass; Preemergence, 250 g ai/ha) | Plant response rating, Foxtail, Giant (foxtail, giant; [12])
20: Plant response rating (scale of 0 to 100), Ryegrass, Italian (ryegrass, Italian; Preemergence, 250 g ai/ha) | Plant response rating, Nutsedge, Yellow (nutsedge, yellow; [10])
80: Ragweed plant response rating (ragweed; [13]) | Plant response rating, Pigweed (pigweed; [17]) | Wheat plant response rating (0 to 100 scale, 0 is no effect, 100 is complete control) (wheat; Postemergence, 500 g ai/ha) | Plant response rating, Crabgrass, Large (crabgrass, large; [12])
0: Plant response rating, Ryegrass, Italian (ryegrass, Italian; [9]) | Plant response rating, Ryegrass, Italian (ryegrass, Italian; [10]) | Plant response rating, Nutsedge, Yellow (nutsedge, yellow; [9]) | Plant response rating, Nutsedge, Yellow (nutsedge, yellow; [11]) | Plant response rating, Nutsedge, Yellow (nutsedge, yellow; [12]) | Nutsedge, Yellow plant response rating (nutsedge, yellow; [13]) | Nutsedge, Yellow plant response rating (nutsedge, yellow; [14]) | Plant response rating, Nutsedge, Yellow (nutsedge, yellow; [2]) | Plant response rating (scale of 0 to 100), Nutsedge, Yellow (nutsedge, yellow; Preemergence, 250 g ai/ha) | Plant response rating, Ragweed (ragweed; [10]) | Plant response rating, Blackgrass (blackgrass; [9]) | Plant response rating, Blackgrass (blackgrass; [10]) | Plant response rating, Johnsongrass (johnsongrass; [9]) | Plant response rating, Johnsongrass (johnsongrass; [10]) | Plant response rating, Johnsongrass (johnsongrass; [11]) | Plant response rating, Foxtail, Giant (foxtail, giant; [9])
70: Plant response rating, Ragweed (ragweed; [2]) | Pigweed plant response rating (0 to 100 scale, 0 is no effect, 100 is complete control) (pigweed; Postemergence, 500 g ai/ha) | Plant response rating, Wheat (wheat; [16]) | Plant response rating, Crabgrass, Large (crabgrass, large; [11])
5: Plant response rating, Ragweed (ragweed; [9]) | Plant response rating, Ragweed (ragweed; [12])
40: Ryegrass, Italian plant response rating (ryegrass, Italian; [14]) | Plant response rating, Blackgrass (blackgrass; [11])
90: Plant response rating, Foxtail, Giant (giant foxtail; [15]) | Plant response rating, Foxtail, Giant (giant foxtail; [16]) | Foxtail, Giant plant response rating (0 to 100 scale, 0 is no effect, 100 is complete control) (giant foxtail; Postemergence, 500 g ai/ha) | Plant response rating, Foxtail, Giant (giant foxtail; [17]) | Plant response rating, Blackgrass (blackgrass; [1]) | Plant response rating, Blackgrass (blackgrass; [2]) | Plant response rating (scale of 0 to 100), Blackgrass (blackgrass; Preemergence, 250 g ai/ha) | Foxtail, Giant plant response rating (foxtail, giant; [13]) | Foxtail, Giant plant response rating (foxtail, giant; [14]) | Crabgrass, Large plant response rating (crabgrass, large; [13]) | Crabgrass, Large plant response rating (crabgrass, large; [14])

Reference: patent publication US10294202B2, “Pyrrolidinones as herbicides” (FMC Corporation, priority 2013, dated 2019)
